Results from patent publication US12459951B2, “Compounds that interact with RAS superfamily proteins for treatment of cancers, inflammatory diseases, rasopathies, and fibrotic disease” (SHY Therapeutics, LLC, priority 2022, dated 2025).

Assays:
[1] = tested on: Smad2/Smad3 phosphorylation; assay: Phospho-Smad2/3 Inhibition Assay (western blot), Panc-1; assay type: cell-based, human; details: at 10 μM, Panc-1 pancreatic cancer cell line; starred symbols = activation
How it was run: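 Western blotting of lysates (15-50 μg protein) read phosphorylation of Smad2 Ser465/467 and Smad3 Ser423/425. Before lysis, Panc-1 cells got 1 h of 10 ng/ml TGF-b1 following 3 h compound exposure at 37° C (10 μM final, or serial dilutions for IC50, 0.3% DMSO) after overnight 0.5% FBS starvation.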

[2] = Kinetic Solubility Assay in pH 7.4 Buffer + 2% DMSO; assay type: physicochemical; details: phosphate-buffered saline pH 7.4 with 2% DMSO, aqueous buffer, kinetic from dmso stock, 25° C., two hours
Experimental: Biological Example 9: Kinetic Solubility
Kinetic solubility assay in pH 7.4 Buffer+2% DMSO (“Kinetic Solubility Assay) was performed according to the following protocol: Briefly, using a 20 mM stock solution of the tested compounds in 100% DMSO, dilutions were prepared to a theoretical concentration of 400 μM in duplicates in phosphate-buffered saline pH 7.4 (138 mM NaCl, 2.7 mM KCl, 10 mM K-phosphate) with 2% final DMSO. The tested compounds dilutions in PBS were further allowed to equilibrate at 25° C. on a thermostatic shaker for two hours and then filtered through HTS filter plates using a vacuum manifold. The filtrates of the test compounds were diluted 2-fold with acetonitrile with 2% DMSO before measuring.
In parallel, using a 20 mM stock solution of the tested compounds in 100% DMSO, dilutions were prepared to theoretical concentrations of 0 μM (blank), 10 μM, 25 μM, 50 μM, 100 μM, and 200 μM in 50% acetonitrile/PBS with 2% final DMSO to generate calibration curves. Ondansetron was used as a reference compound to control proper assay performance. 200 μL of each sample was transferred to a 96-well plate and measured in the 230-550 nm range with a 5 nm step.
The concentrations of compounds in PBS filtrate are calculated using a dedicated Microsoft Excel calculation script. Proper absorbance wavelengths for calculations are selected for each compound manually based on absorbance maximums (absolute absorbance unit values for the minimum and maximum concentration points within the 0-3 OD range). Each final dataset is visually evaluated by the operator, and goodness of fit (R2) is calculated for each calibration curve. The effective range of this assay is approximately 2-400 μM and the compounds returning values close to the upper limit of the range may have higher actual solubility (e.g., 5′-deoxy-5-fluorouridine).
Table 8 show kinetic solubility data for selected compounds tested in the Kinetic Solubility assay described above.

[3] = Mouse Liver Microsome Metabolic Stability Assay; assay type: in vitro ADME; details: pH 7.4, Mouse liver microsomes, 37° C., NADPH, read-out: t½
Experimental: Biological Example 10: Assessment of Metabolic Stability in Mouse Liver Microsomes
Metabolic Stability Assay: Microsomal incubations were carried out in 96-well plates in 5 aliquots of 30 μL each (one for each time point). Liver microsomal incubation medium comprised of phosphate buffer (100 mM, pH 7.4), MgCl2 (3.3 mM), NADPH (3 mM), glucose-6-phosphate (5.3 mM), glucose-6-phosphate dehydrogenase (0.67 units/ml) with 0.42 mg of liver microsomal protein per mL. In the control reactions the NADPH-cofactor system was substituted with phosphate buffer. Test compounds (2 μM, final solvent concentration 1.6%) were incubated with microsomes at 37° C., shaking at 100 rpm. Each reaction was performed in duplicates. Five time points over 40 minutes were analyzed. The reactions were stopped by adding 5 volumes of methanol containing internal standard to incubation aliquots, followed by protein sedimentation by centrifuging at 5500 rpm for 4 minutes. Supernatants were analyzed using the HPLC system coupled with tandem mass spectrometer.
The elimination constant (kel), half-life (t1/2) and intrinsic clearance (Clint) were determined in plot of […] versus time, using linear regression analysis:
In order to indicate the quality of the linear regression analysis, the R (correlation coefficient) values are provided. In some cases, the last time point is excluded from the calculations to ensure acceptable logarithmic linearity of decay.
Table 9 show metabolic stability data for selected compounds tested in the Mouse Liver Microsome Metabolic Stability assay described above.

| SMILES | % inh of Smad2/3 phosphorylation in Panc-1 [1] | solubility at 2 h [2] | half-life at 2 µM [3] |
| --- | --- | --- | --- |
| COc1cc(Nc2nc(-c3nccn3C)nn3cc(-c4ccn(C(C)C)n4)c(C)c23)ncn1 [Compound 6, 6-(1-Isopropyl-1H-pyrazol-3-yl)-N-(6-methoxypyrimidin-4-yl)-5-methyl-2-(1-methyl-1H-imidazol-2-yl)pyrrolo[2,1-f][1,2,4]triazin-4-amine] | 0 (0 = 0% inhibition) | < 10 µM | > 10 min |
| Cc1c(-c2ccn(C3CC3)n2)cn2nc(-c3nccn3C)nc(Nc3cc(N(C)C)ccn3)c12 [Compound 145, N^2-(6-(1-Cyclopropyl-1H-pyrazol-3-yl)-5-methyl-2-(1-methyl-1H-imidazol-2-yl)pyrrolo[2,1-f][1,2,4]triazin-4-yl)-N^4,N^4-dimethylpyridine-2,4-diamine] | B* (B* = 26-45% activation) | 10 to 30 µM | > 10 min |
| COc1ccnc(Nc2nc(-c3nccn3C)nn3cc(-c4ccn(C5CC5)n4)c(C)c23)c1 [Compound 137, 6-(1-Cyclopropyl-1H-pyrazol-3-yl)-N-(4-methoxypyridin-2-yl)-5-methyl-2-(1-methyl-1H-imidazol-2-yl)pyrrolo[2,1-f][1,2,4]triazin-4-amine] | C (C = 46-75% inhibition) | 10 to 30 µM | > 10 min |
